Test results published in ChEMBL document CHEMBL3045721, “Fungicidal Activity of New Diphenylphosphinic Amide Derivatives” (Biosci Biotechnol Biochem, 1992).

Experiments:
[1] = system: Pseudoperonospora cubensis; experiment: Fungicidal activity against Pseudoperonospora cubensis administered through preventive foliar spraying of compound at 25 ppm 1 day before fungal inoculation on cucumber plants assessed as prevention of cucumber downy mildew measured 6 days after inoculation under greenhouse conditions; type: functional
[2] = system: Pseudoperonospora cubensis; experiment: Fungicidal activity against Pseudoperonospora cubensis administered through preventive foliar spraying of compound at 100 ppm 1 day before fungal inoculation on cucumber plants assessed as prevention of cucumber downy mildew measured 6 days after inoculation under greenhouse conditions; type: functional
Cucumis sativus [3] = experiment: Toxicity against Pseudoperonospora cubensis infected Cucumis sativus (cucumber) plants administered through preventive foliar spraying of compound at 25 to 100 ppm 1 day before fungal inoculation on cucumber plants measured 6 days after inoculation under greenhouse conditions; type: organism-based; settings: in vivo, other, 144 h
[4] = system: Pseudoperonospora cubensis; experiment: Fungicidal activity against Pseudoperonospora cubensis administered through preventive foliar spraying of compound at 100 ppm 5 days before fungal inoculation on cucumber plants assessed as prevention of cucumber downy mildew measured 6 days after inoculation under field test conditions; type: functional
Cucumis sativus [5] = experiment: Toxicity against Pseudoperonospora cubensis infected Cucumis sativus (cucumber) plants administered through preventive foliar spraying of compound at 100 ppm 5 days before fungal inoculation on cucumber plants measured 6 days after inoculation under field test conditions; type: organism-based; settings: in vivo, other, 144 h

`CCSP(=NP(=S)(c1ccccc1)c1ccccc1)(c1ccccc1)c1ccccc1` was tested, and the Activity [1] was 47%, the Activity [2] was 79% and the Activity (Cucumis sativus [3]) was “Non-toxic”.

For `CSP(=NP(=O)(c1ccccc1)c1ccccc1)(c1ccccc1)c1ccccc1`, the Activity [1] was 41%, the Activity [2] was 80% and the Activity (Cucumis sativus [3]) was “Non-toxic”.

`O=C(CSP(=NP(=O)(c1ccccc1)c1ccccc1)(c1ccccc1)c1ccccc1)Nc1ccccc1` was tested, and the Activity [1] was 75%, the Activity [2] was 91% and the Activity (Cucumis sativus [3]) was “Non-toxic”.

`CCOC(=O)CSP(=NP(=O)(c1ccccc1)c1ccccc1)(c1ccccc1)c1ccccc1` was tested, and the Activity [1] was 77%, the Activity [2] was 92% and the Activity (Cucumis sativus [3]) was “Non-toxic”.

`CCOC(=O)C(C)SP(=NP(=S)(c1ccccc1)c1ccccc1)(c1ccccc1)c1ccccc1` (stereo unspecified) was tested, and the Activity [1] was 70%, the Activity [2] was 85% and the Activity (Cucumis sativus [3]) was “Non-toxic”.

For `CSP(=NP(=S)(c1ccccc1)c1ccccc1)(c1ccccc1)c1ccccc1`, the Activity [1] was 50%, the Activity [2] was 82% and the Activity (Cucumis sativus [3]) was “Non-toxic”.

For `C/C=C/CSP(=NP(=O)(c1ccccc1)c1ccccc1)(c1ccccc1)c1ccccc1`, the Activity [1] was 40%, the Activity [2] was 79% and the Activity (Cucumis sativus [3]) was “Non-toxic”.

`CCSP(=NP(=O)(c1ccccc1)c1ccccc1)(c1ccccc1)c1ccccc1` was tested, and the Activity [1] was 43%, the Activity [2] was 82% and the Activity (Cucumis sativus [3]) was “Non-toxic”.

With `O=C(CSP(=NP(=S)(c1ccccc1)c1ccccc1)(c1ccccc1)c1ccccc1)NCc1ccccc1` the Activity [1] was 73%, the Activity [2] was 87% and the Activity (Cucumis sativus [3]) was “Non-toxic”.

`N#CCSP(=NP(=O)(c1ccccc1)c1ccccc1)(c1ccccc1)c1ccccc1` was tested, and the Activity [1] was 74%, the Activity [2] was 89% and the Activity (Cucumis sativus [3]) was “Non-toxic”.

`O=P(N=P(SCc1ccccc1)(c1ccccc1)c1ccccc1)(c1ccccc1)c1ccccc1` was tested, and the Activity [1] was 86%, the Activity [4] was 88% and the Activity (Cucumis sativus [5]) was “Non-toxic”. For the same compound, the Activity [2] was 100% and the Activity (Cucumis sativus [3]) was “Non-toxic”.

`S=P(N=P(SCc1ccccc1)(c1ccccc1)c1ccccc1)(c1ccccc1)c1ccccc1` was tested, and the Activity [1] was 88%, the Activity [4] was 91% and the Activity (Cucumis sativus [5]) was “Non-toxic”. The Activity [2] was 100% and the Activity (Cucumis sativus [3]) was “Non-toxic”.

For `O=C(CSP(=NP(=O)(c1ccccc1)c1ccccc1)(c1ccccc1)c1ccccc1)NCc1ccccc1`, the Activity [1] was 76%, the Activity [2] was 93% and the Activity (Cucumis sativus [3]) was “Non-toxic”.

`CCOC(=O)C(C)SP(=NP(=O)(c1ccccc1)c1ccccc1)(c1ccccc1)c1ccccc1` (stereo unspecified) was tested, and the Activity [1] was 76%, the Activity [2] was 90% and the Activity (Cucumis sativus [3]) was “Non-toxic”.
